Data: patent publication US9701670B2, “Pyrazolyl-ureas as kinase inhibitors” (RESPIVERT LIMITED, priority 2013, dated 2017)
Values belong to the molecule of their own block, whether it stands above or below them.

Tests used:
[1] = molecular target: T1, p38 MAPKα isoform (MAPK14) (Homo sapiens (Human), UniProt Q16539); assay: p38 MAPKα enzyme inhibition (FRET, Z-LYTE), Method 1; format: biochemical; details: Method 1 (Table 4a1)
[2] = molecular target: T1, p38 MAPKα isoform (MAPK14); assay: p38 MAPKα enzyme inhibition (FRET, Z-LYTE), Method 2; format: biochemical; details: Method 2, different laboratory (Table 4a2)
Protocol: (§1) The enzyme inhibitory activities of compounds disclosed herein are determined by FRET using synthetic peptides labelled with both donor and acceptor fluorophores (Z-LYTE, Invitrogen Ltd., Paisley, UK).
The inhibitory activities of test compounds against the p38 MAPKα isoform (MAPK14: Invitrogen), are evaluated indirectly by determining the level of activation/phosphorylation of the down-stream molecule, MAPKAP-K2. The p38 MAPKα protein (80 ng/mL, 2.5 μL) is mixed with the test compound (2.5 μL of either 4 μg/mL, 0.4 μg/mL, 0.04 μg/mL or 0.004 μg/mL) for 2 hr at RT. […] The mixture is incubated for 1 hr at RT. Development reagent (protease, 5 μL) is added for 1 hr prior to detection in a fluorescence microplate reader (Varioskan® Flash, ThermoFisher Scientific).
(§2) In all cases, the site-specific protease cleaves non-phosphorylated peptide only and eliminates the FRET signal. Phosphorylation levels of each reaction are calculated using the ratio of coumarin emission (donor) over fluorescein emission (acceptor), for which high ratios indicate high phosphorylation and low ratios indicate low phosphorylation levels.

GSK 3α [3] = molecular target: T2, GSK 3α (Homo sapiens (Human), UniProt P49840); assay: GSK 3α enzyme inhibition (FRET, Z-LYTE), Method 2; format: biochemical; details: Method 2, different laboratory (Table 4a2); read-out: IC50 Values for Enzyme Inhibition GSK3α
T2 sequence (P49840 whole entry): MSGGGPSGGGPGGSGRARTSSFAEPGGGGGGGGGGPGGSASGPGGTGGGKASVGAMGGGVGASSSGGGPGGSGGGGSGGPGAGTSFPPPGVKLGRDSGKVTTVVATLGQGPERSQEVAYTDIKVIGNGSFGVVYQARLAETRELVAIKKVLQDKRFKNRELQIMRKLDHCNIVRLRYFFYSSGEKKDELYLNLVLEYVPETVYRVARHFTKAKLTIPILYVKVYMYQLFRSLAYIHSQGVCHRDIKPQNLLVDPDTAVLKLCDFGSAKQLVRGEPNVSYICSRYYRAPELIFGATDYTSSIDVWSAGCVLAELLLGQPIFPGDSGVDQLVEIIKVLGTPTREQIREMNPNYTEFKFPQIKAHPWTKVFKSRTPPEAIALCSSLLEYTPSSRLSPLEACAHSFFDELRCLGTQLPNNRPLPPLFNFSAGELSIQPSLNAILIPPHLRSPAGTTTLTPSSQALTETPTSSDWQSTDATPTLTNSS
Protocol: as §1
(§3) The inhibitory activities of compounds of the invention against the GSK 3α enzyme isoform (Invitrogen), are evaluated by determining the level of activation/phosphorylation of the target peptide. The GSK3-α protein (500 ng/mL, 2.5 μL) is mixed with the test compound (2.5 μL at either 4 μg/mL, 0.4 μg/mL, 0.04 μg/mL, or 0.004 μg/mL) for 2 hr at RT. The FRET peptide (8 μM, 2.5 μL), which is a phosphorylation target for GSK3α, and ATP (40 μM, 2.5 μL) are then added to the enzyme/compound mixture and the resulting mixture incubated for 1 hr. Development reagent (protease, 5 μL) is added for 1 hr prior to detection in a fluorescence microplate reader (Varioskan® Flash, ThermoFisher Scientific).
as §2

[4] = system: Differentiated U937 cells; assay: (l) Cell viability: MTT assay; format: cell-based, human; details: 1 μg/mL
Outline: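 Differentiated U937 cells were exposed to compound at 1 or 10 μg/mL either 4 h in 5% FCS RPMI1640 or 24 h in 10% FCS RPMI1640, then given MTT for 1 h, DMSO-solubilised and read at 550 nm. Percent viability loss versus 0.5% DMSO vehicle; apparent gains appear negative.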

Balb/c mice = assay: (A) LPS-induced neutrophil accumulation in mice; format: in vivo, mouse; details: mice; for Neutrophil numbers in BAL: N = 8
Protocol: […] At T=0, mice are placed into an exposure chamber and exposed to LPS (7.0 mL, 0.5 mg/mL solution in PBS) for 30 min). After a further 8 hr the animals are anesthetized, their tracheas cannulated and BALF extracted by infusing and then withdrawing from their lungs 1.0 mL of PBS via the tracheal catheter. Total and differential white cell counts in the BALF samples are measured using a Neubaur haemocytometer. Cytospin smears of the BALF samples are prepared by centrifugation at 200 rpm for 5 min at RT and stained using a DiffQuik stain system (Dade Behring). Cells are counted using oil immersion microscopy. Data for neutrophil numbers in BAL are shown as mean±S.E.M. (standard error of the mean). The percentage inhibition of neutrophil accumulation is calculated for each treatment relative to vehicle treatment.

mice = assay: Mouse cigarette smoke model (macrophage and neutrophil accumulation in BALF); format: in vivo; details: tobacco smoke, mice; for Cell numbers in BAL Macrophage / Cell numbers in BAL Neutrophil: mean ± SEM, N = 6
Excerpt: The result of treatment with compound Example (8) on macrophage and neutrophil accumulation in BALF in the mouse cigarette smoke model was investigated (Table 5).

GSK 3α [5] = molecular target: T2, GSK 3α; assay: GSK 3α enzyme inhibition (FRET, Z-LYTE), Method 1; format: biochemical; details: Method 1 (Table 4a1); read-out: IC50 Values for Enzyme Inhibition GSK3α
Protocol: as §1, §3, §2

[6] = system: β-catenin in d-U937 cells; assay: (m) Accumulation of β catenin in d-U937 cells; format: cell-based, human
Outline: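 PMA-differentiated U937 macrophage-type cells (100 ng/mL, 48–72 hr) were exposed to test compound or vehicle for 18 hr, then fixed. β-catenin was measured by cell ELISA (HRP/TMB, OD450-655) and normalised to crystal violet OD595. Signals below 15% of the standard control were designated "-ve".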

[7] = Hepatic microsomal stability; format: in vitro ADME, human
Protocol: (§4) • Microsomal stability assays were performed with incubations of test compounds at 0.1 μM (n=2, final DMSO concentration 0.25%), and carried out using pooled human, dog and rat hepatic microsomes from Xenotech (Lots 1210153, 0810143 and 1110042, respectively) at 0.25 mg protein/mL in the presence of co-factor, NADPH. The incubations were performed at 37° C. with 100 μL aliquots taken from the incubation, at 0, 2, 5, 10 and 20 minutes and reactions terminated by addition of 100 μL of acetonitrile containing carbamazepine as analytical internal standard. […] Half-life values were calculated from the relationship T1/2(min)=−0.693/λ • where λ was the slope of the Ln concentration vs time curve. • The in vitro intrinsic clearance, CIint (mL/min/kg), was calculated and scaled to hepatic extraction ratios using the following scaling parameters and formulae.
(§5) Formulae CIint(tissue clearance) mL/min/kg=[0.693/t½(min)]×[1/microsomal protein concentration mg/mL]×[mg microsomes/g liver]×[g liver/kg body weight] […] The incubations were performed at 37° C. with 100 μL samples taken from the incubation, at 0, 10, 20, 45 and 90 minutes, and reactions terminated by addition of 100 μL of acetonitrile containing carbamazepine as analytical internal standard. […] Half-life values were calculated from the relationship T1/2(min)=−0.693/λ • where λ was the slope of the Ln concentration vs time curve. • Standard compounds testosterone, midazolam and 4-methylumbelliferone are included in the assay design.

[8] = Hepatic microsomal stability; format: in vitro ADME; details: scaled from intrinsic clearance, mean of two experiments
Protocol: as §4, §5

[9] = Cryopreserved hepatocyte stability; format: in vitro ADME; details: scaled from intrinsic clearance, mean of two experiments
Protocol: as §5
CIint(Tissue Clearance) mL/min/kg=[0.693/t½(min)]×[1/hepatocyte concentration (million cells/mL)]×[million cells/g liver]×[g liver/kg body weight] CIint(Hepatic clearance) mL/min/kg=hepatic blood flow×CIint/(hepatic blood flow+CIint) Hepatic extraction ratio (Eh)=CIint(Hepatic clearance) mL/min/kg/hepatic blood flow (mL/min/kg)

T1 sequence (Q16539 whole entry, canonical isoform): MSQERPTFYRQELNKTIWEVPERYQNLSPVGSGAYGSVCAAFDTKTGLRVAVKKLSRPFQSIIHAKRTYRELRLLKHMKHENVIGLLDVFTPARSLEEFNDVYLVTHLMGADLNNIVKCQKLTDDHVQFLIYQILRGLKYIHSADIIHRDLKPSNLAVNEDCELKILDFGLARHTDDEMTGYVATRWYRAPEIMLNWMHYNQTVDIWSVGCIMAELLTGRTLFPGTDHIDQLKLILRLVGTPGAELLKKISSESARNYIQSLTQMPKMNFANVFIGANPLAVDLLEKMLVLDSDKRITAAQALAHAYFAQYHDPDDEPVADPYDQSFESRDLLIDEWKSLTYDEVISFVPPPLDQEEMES

IC50 [1]: 2 nM
IC50 [2]: 44 nM
IC50 (GSK 3α [3]): 13200 nM
SMILES: COc1cc(Nc2nccc(Oc3ccc(NC(=O)Nc4cc(C(C)C)nn4-c4ccc(C)cc4)c4ccccc34)n2)cc(C(=O)NCCN2CCOCC2)c1 [Example 8, 3-((4-((4-(3-(3-Isopropyl-1-(p-tolyl)-1H-pyrazol-5-yl)ureido)naphthalen-1-yl)oxy)pyrimidin-2-yl)amino)-5-methoxy-N-(2-morpholinoethyl)benzamide]
Cell viability at time point in d-U937 cells 4 h [4]: −ve (−ve and +ve indicate that the value is below and above respectively, the no significant effect threshold, defined as 30% inhibition at 1 μg/mL at the time point indicated.)
Cell viability at time point in d-U937 cells 24 h [4]: −ve (−ve and +ve indicate that the value is below and above respectively, the no significant effect threshold, defined as 30% inhibition at 1 μg/mL at the time point indicated.)
% inhibition of neutrophil numbers in BAL (Balb/c mice; 0.05 mg/mL, pre-dose time 2 hr): 40%
Neutrophil numbers in BAL (Balb/c mice; 0.05 mg/mL, pre-dose time 2 hr, mean +/− SEM): 9.6 ± 2.0 ×10^5/mL
% inhibition of neutrophil numbers in BAL (Balb/c mice; 0.2 mg/mL, pre-dose time 2 hr): 59%
Neutrophil numbers in BAL (Balb/c mice; 0.2 mg/mL, pre-dose time 2 hr, mean +/− SEM): 6.6 ± 1.4 ×10^5/mL
% inhibition of neutrophil numbers in BAL (Balb/c mice; 0.2 mg/mL, pre-dose time 12 hr): 43%
Neutrophil numbers in BAL (Balb/c mice; 0.2 mg/mL, pre-dose time 12 hr, mean +/− SEM): 9.1 ± 1.7 ×10^5/mL
% inhibition of neutrophil numbers in BAL (Balb/c mice; 0.2 mg/mL, pre-dose time 18 h): 9%
Neutrophil numbers in BAL (Balb/c mice; 0.2 mg/mL, pre-dose time 18 h, mean +/− SEM): 14.6 ± 2.5 ×10^5/mL
% inhibition of neutrophil numbers in BAL (Balb/c mice; 1.0 mg/mL, pre-dose time 2 hr): 77%
Neutrophil numbers in BAL (Balb/c mice; 1.0 mg/mL, pre-dose time 2 hr, mean +/− SEM): 3.7 ± 0.61 ×10^5/mL
% inhibition of neutrophil numbers in BAL (Balb/c mice; test substance at 0.2 mg/mL, dosed 8 hr pre-LPS challenge): 57%
Neutrophil numbers in BAL (Balb/c mice; test substance at 0.2 mg/mL, dosed 8 hr pre-LPS challenge, +/−SEM): 6.1 ± 1.2 ×10^5/mL
% inhibition Macrophage in BAL (mice; 1.6 μg/mL): 29%
% inhibition Neutrophil in BAL (mice; 1.6 μg/mL): 28%
Cell numbers in BAL Macrophage (mice; 1.6 μg/mL): 14.0 ± 0.50 ×10^4/mL
Cell numbers in BAL Neutrophil (mice; 1.6 μg/mL): 13.6 ± 0.51 ×10^4/mL
% inhibition Macrophage in BAL (mice; 8 μg/mL): 50%
% inhibition Neutrophil in BAL (mice; 8 μg/mL): 49%
Cell numbers in BAL Macrophage (mice; 8 μg/mL): 10.9 ± 0.42 ×10^4/mL
Cell numbers in BAL Neutrophil (mice; 8 μg/mL): 10.2 ± 0.33 ×10^4/mL
% inhibition Macrophage in BAL (mice; 40 μg/mL): 67%
% inhibition Neutrophil in BAL (mice; 40 μg/mL): 61%
Cell numbers in BAL Macrophage (mice; 40 μg/mL): 8.3 ± 0.38 ×10^4/mL
Cell numbers in BAL Neutrophil (mice; 40 μg/mL): 8.2 ± 0.58 ×10^4/mL
% inhibition Macrophage in BAL (mice; 200 μg/mL): 83%
% inhibition Neutrophil in BAL (mice; 200 μg/mL): 77%
Cell numbers in BAL Macrophage (mice; 200 μg/mL): 5.9 ± 0.31 ×10^4/mL
Cell numbers in BAL Neutrophil (mice; 200 μg/mL): 5.6 ± 0.39 ×10^4/mL

IC50 [1]: 45 nM
IC50 (GSK 3α [5]): 13000 nM
SMILES: COc1cc(Nc2nccc(Oc3ccc(NC(=O)Nc4cc(C(C)C)nn4-c4ccc(C)cc4)c4ccccc34)n2)cc(C(=O)NCCO)c1 [Example 63, N-(2-hydroxyethyl)-3-((4-((4-(3-(3-isopropyl-1-(p-tolyl)-1H-pyrazol-5-yl)ureido)naphthalen-1-yl)oxy)pyrimidin-2-yl)amino)-5-methoxybenzamide]
Cell viability at time point in d-U937 cells 4 h [4]: −ve (−ve and +ve indicate that the value is below and above respectively, the no significant effect threshold, defined as 30% inhibition at 1 μg/mL at the time point indicated.)
Cell viability at time point in d-U937 cells 24 h [4]: −ve (−ve and +ve indicate that the value is below and above respectively, the no significant effect threshold, defined as 30% inhibition at 1 μg/mL at the time point indicated.)

IC50 [2]: 437 nM
IC50 (GSK 3α [3]): 12600 nM
hepatic clearance ([7]; conclusion from Tables 9a and 9b (hepatic microsomes and hepatocytes)): high hepatic clearance
Mean hepatic extraction ratio (Eh) ([7]; human hepatic microsomes, scaled from intrinsic clearance, mean of two experiments): 0.93
Mean hepatic extraction ratio (Eh) ([8]; dog hepatic microsomes): 0.91
Mean hepatic extraction ratio (Eh) ([8]; rat hepatic microsomes): 0.77
Mean hepatic extraction ratio (Eh) ([9]; dog hepatocytes): 0.73
Mean hepatic extraction ratio (Eh) ([9]; human hepatocytes): <0.61
Mean hepatic extraction ratio (Eh) ([9]; rat hepatocytes): <0.44
SMILES: C#Cc1cc(Nc2nccc(Oc3ccc(NC(=O)Nc4cc(C(C)(C)C)nn4-c4ccc(N(C)C)cc4)c4ccccc34)n2)cc(C(=O)NCCN2CCOCC2)c1 [Example 80, 3-((4-((4-(3-(3-(tert-Butyl)-1-(4-(dimethylamino)phenyl)-1H-pyrazol-5-yl)ureido)naphthalen-1-yl)oxy)pyrimidin-2-yl)amino)-5-ethynyl-N-(2-morpholinoethyl)-benzamide]
% β-catenin induction ([6]; 1 μg/mL test compound): 14%
% β-catenin induction ([6]; 5 μg/mL test compound): 8%
